Assay results reported in patent US20120214736A1, “COMPOSITIONS AND METHODS FOR THE MODULATION OF JNK PROTEINS” (Isis Pharmaceuticals, Inc., priority 2006, published 2012).
In the oligonucleotide strings, read from the 5' end, every base follows the letter of its sugar. An asterisk marks phosphorothioate; unmarked linkages are phosphodiester. Other units and linkages are bracketed, terminal groups are in braces. A string of capitals states the bases alone. e = 2'-O-(2-methoxyethyl) (MOE); [5mC] = 5-methylcytosine; d = 2'-deoxy (DNA)

Legend:
JNK2 mRNA = experiment: Northern assay, JNK2 mRNA expression in A549 cells; format: cell-based, human; conditions: for response of JNK2 mRNA levels in A549 cells (dose and sequence dependence): 50, 100, 200 and 400 nM
Description: (§1) In order to evaluate the activity of potential JNK-modulating oligonucleotides, human lung carcinoma cell line A549 (American Type Culture Collection, Rockville, Md. No. ATCC CCL-185) cells or other cell lines as indicated in the Examples, were grown and treated with oligonucleotides or control solutions as detailed below. After harvesting, cellular extracts were prepared and examined for specific JNK mRNA levels or JNK protein levels (i.e., Northern or Western assays, respectively). In all cases, “% expression” refers to the amount of JNK-specific signal in an oligonucleotide-treated cell relative to an untreated cell (or a cell treated with a control solution that lacks oligonucleotide).
(§2) Northern Assays The mRNA expression of each JNK protein was determined by using a nucleic acid probe specifically hybridizable thereto. Nucleic acid probes specific for JNK1, JNK2 and JNK3 are described in Examples 3, 4 and 5, respectively. The probes were radiolabelled by means well known in the art (see, e.g., Short Protocols in Molecular Biology, 2nd Ed., Ausubel et al., Eds., John Wiley & Sons, New York, 1992, pages 3-11 to 2-3-44 and 4-17 to 4-18; Ruth, Chapter 6 In: Methods in Molecular Biology, Vol. 26: Protocols for Oligonucleotide Conjugates, Agrawal, ed., Humana Press Inc., Totowa, N.J., 1994, pages 167-185; and Chapter 10 In: Molecular Cloning: A Laboratory Manual, 2nd Ed., Sambrook et al., Eds., pages 10.1-10.70). The blots were stripped and reprobed with a ^32P-labeled glyceraldehyde 3-phosphate dehydrogenase (G3PDH) probe (Clontech Laboratories, Inc., Palo Alto, Calif.) in order to confirm equal loading of RNA and to allow the levels of JNK transcripts to be normalized with regard to the G3PDH signals.
A549 cells were grown in T-75 flasks until 80-90% confluent. At this time, the cells were washed twice with 10 mL of media (DMEM), followed by the addition of 5 mL of DMEM containing 20 ┘g/mL of LIPOFECTIN™ (i.e., 1:1 (w/w) DOTMA/DOPE, Life Technologies, Gaithersburg, Md.; DOTMA=N-[1-(2,3-dioleyoxy)propyl]-N,N,N-trimethylammonium chloride; DOPE=dioleoyl phosphatidylethanolamine). The oligonucleotides were added from a 10 μM stock solution to a final concentration of 400 nM, and the two solutions were mixed by swirling the flasks. As a control, cells were treated with LIPOFECTIN™ without oligonucleotide under the same conditions and for the same times as the oligonucleotide-treated samples. After 4 hours at 37° C., the medium was replaced with fresh DMEM containing 10% serum. The cells were allowed to recover for 18 hours. Total cellular RNA was then extracted in guanidinium, subject to gel electrophoresis and transferred to a filter according to techniques known in the art (see, e.g., Chapter 7 In: Molecular Cloning: A Laboratory Manual, 2nd Ed., Sambrook et al., Eds., pages 7.1-7.87, and Short Protocols in Molecular Biology, 2nd Ed., Ausubel et al., Eds., John Wiley & Sons, New York, 1992, pages 2-24 to 2-30 and 4-14 to 4-29). Filters were typically hybridized overnight to a probe specific for the particular JNK gene of interest in hybridization buffer (25 mM KPO4, pH 7.4; 5×SSC; 5×Denhardt's solution, 100 µg/ml Salmon sperm DNA and 50% formamide) (Alahari et al., Nucl. Acids Res., 1993, 21, 4079). […] Hybridizing bands were visualized by exposure to X-OMAT AR film and quantitated using a PHOSPHORIMAGER™ essentially according to the manufacturer's instructions (Molecular Dynamics, Sunnyvale, Calif.). […]

human JNK2 mRNA = experiment: Northern analysis, human JNK2 mRNA in Jurkat cells (electroporation, dose response); format: cell-based; conditions: Jurkat cells
Description: Jurkat cells were routinely cultured in RPMI Medium 1640 (Gibco/Life Technologies, Gaithersburg, Md.) supplemented with 20% fetal calf serum (Gibco/Life Technologies, Gaithersburg, Md.). Cells were routinely passaged by aspirating media that contained excess cells and replenishing with new media.
For electroporation, cells were diluted to 28×10^6 cells/mL and placed into 1 mm electroporation cuvettes. Electroporation is performed by treating with 1-20 μM oligonucleotide, at 160 Volts for 6 msec. The entire electroporated samples are then placed into 5 mL of 10% FBS/RPMI Medium 1640 in 100 mm plates. Plates are then left overnight at 37° C./5% CO2.
Each sample is then transferred to 15 mL conical tubes and spun down at 1200 rpm for 5 minutes followed by aspiration of the supernatant. Cells are then suspended in 5 mL PBS followed by a second centrifugation at 1200 rpm for 5 minutes followed by aspiration of the supernatant. Cells are then washed and lysed. Following the lysis step, total cellular RNA is then isolated using the RNEASY kit (Qiagen, Santa Clarita, Calif.) as described in other examples herein.
In accordance with the present invention, Jurkat cells were treated by electroporation with 1, 5 or 20 uM ISIS 101759 or the control oligonucleotide and mRNA levels of human JNK2 were quantitated by Northern analysis.

JNK1 mRNA = experiment: Northern assay, JNK1 mRNA expression in A549 cells; format: cell-based, human; conditions: for RNA % Inhibition: 300 nM for initial 20 hours then 200 nM for 4 hours; for response of JNK1 mRNA levels in A549 cells (dose and sequence dependence): 50, 100, 200 and 400 nM
Description: as §1, §2
A549 cells were grown in T-75 flasks until 80-90% confluent. At this time, the cells were washed twice with 10 mL of media (DMEM), followed by the addition of 5 mL of DMEM containing 20 ┘g/mL of LIPOFECTIN™ (i.e., 1:1 (w/w) DOTMA/DOPE, Life Technologies, Gaithersburg, Md.; DOTMA=N-[1-(2,3-dioleyoxy)propyl]-N,N,N-trimethylammonium chloride; DOPE=dioleoyl phosphatidylethanolamine). The oligonucleotides were added from a 10 μM stock solution to a final concentration of 400 nM, and the two solutions were mixed by swirling the flasks. As a control, cells were treated with LIPOFECTIN™ without oligonucleotide under the same conditions and for the same times as the oligonucleotide-treated samples. After 4 hours at 37° C., the medium was replaced with fresh DMEM containing 10% serum. The cells were allowed to recover for 18 hours. Total cellular RNA was then extracted in guanidinium, subject to gel electrophoresis and transferred to a filter according to techniques known in the art (see, e.g., Chapter 7 In: Molecular Cloning: A Laboratory Manual, 2nd Ed., Sambrook et al., Eds., pages 7.1-7.87, and Short Protocols in Molecular Biology, 2nd Ed., Ausubel et al., Eds., John Wiley & Sons, New York, 1992, pages 2-24 to 2-30 and 4-14 to 4-29). Filters were typically hybridized overnight to a probe specific for the particular JNK gene of interest in hybridization buffer (25 mM KPO4, pH 7.4; 5×SSC; 5×Denhardt's solution, 100 µg/ml Salmon sperm DNA and 50% formamide) (Alahari et al., Nucl. Acids Res., 1993, 21, 4079). This was followed by two washes with 1×SSC, 0.1% SDS and two washes with 0.25×SSC, 0.1% SDS. Hybridizing bands were visualized by exposure to X-OMAT AR film and quantitated using a PHOSPHORIMAGER™ essentially according to the manufacturer's instructions (Molecular Dynamics, Sunnyvale, Calif.).
JNK1-specific probes: In initial screenings of a set of oligonucleotides derived from the JNK1 sequence (Table 2) for biological activity, a cDNA clone of JNK1 (Derijard et al., Cell, 1994, 76, 1025) was radiolabeled and used as a JNK1-specific probe in Northern blots. Alternatively, however, one or more of the oligonucleotides of Table 1 is detectably labeled and used as a JNK1-specific probe. […]

[1] = tested on: TNFa-induced JNK activity; experiment: TNFa-induced JNK activity in HUVEC (GST-c-Jun phosphorylation); format: cell-based, human; conditions: 100 nM, 5 ng/ml TNFa 15 minutes, compared to a control oligonucleotide
Description: Human umbilical vein endothelial cells (HUVEC, Clonetics, San Diego Calif.) were incubated with oligonucleotide with LipofectinJ in Opti-MEMJ for 4 hours at 37° C./5% CO2. The medium was then replaced with 1% FBS/EGM (Clonetics, Walkersville Md.) and incubated for 24 hours at 37° C./5% CO2. Cells were treated with 5 ng/ml TNFa for 15 minutes before lysis. JNK activity was determined by incubating lysates (normalized for protein) with immobilized GST-c-Jun fusion protein (e.g., New England Biolabs, Beverly, Mass.)+^32P-ATP. GST-c-Jun beads were washed and SDS-PAGE sample buffer was added. Samples were resolved by SDS-PAGE and phosphorylated c-Jun was visualized using a Molecular Dynamics PhosphorImager.

rat JNK2 mRNA = experiment: Northern assay, rat JNK2 (p54a) mRNA levels in A10 aortic smooth muscle cells; format: cell-based; conditions: Northern assays
Description: (§3) In order to study the role of JNK proteins in animal models, oligonucleotides targeted to the genes encoding JNK1, JNK2 and JNK3 of Rattus norvegicus were prepared. These oligonucleotides are 2′-methoxyethoxy, phosphodiester/2′-hydroxyl, phosphorothioate/2′-methoxyethoxy, phosphodiester “gapmers” in which every cytosine residue is 5-methylcytosine (m5c). These antisense compounds were synthesized according to the methods of the disclosure. Certain of these oligonucleotides are additionally specifically hybridizable to JNK genes from other species as indicated herein. The oligonucleotides described in this Example were tested for their ability to modulate rat JNK mRNA levels essentially according to the methods described in the preceding Examples, with the exceptions that the cell line used was rat A10 aortic smooth muscle cells (ATCC No. ATCC CRL-1476) and the probes used were specific for rat JNK1, JNK2 or JNK3 (see infra). A10 cells were grown and treated with oligonucleotides essentially as described by (Cioffi et al. Mol. Pharmacol., 1997, 51, 383).
(§4) These antisense compounds were tested for their ability to modulate levels of (JNK1) and (JNK2) mRNA in A10 cells via Northern assays. Due to the high degree of sequence identity between the human and rat genes, radiolabeled human JNK1 (Example 3) and JNK2 (Example 4) cDNAs functioned as specific probes for the rat homologs. […]

rat JNK1 mRNA = experiment: Northern assay, rat JNK1 mRNA levels in A10 aortic smooth muscle cells; format: cell-based; conditions: Northern assays
Description: as §3, §4

**Q.** “14319 (dG*dT*dG*dC*dG*dC*dG*dC*dG*dA*dG*dC*dC*dC*dG*dA*dA*dA*dT*dC) [compound 14319]” was tested. Which “response of JNK2 mRNA levels in A549 cells (dose and sequence dependence)” value (JNK2 mRNA) did it give?
**A.** neither of the control oligonucleotides effect any consistent response

**Q.** “101759 (antisense GCTCAGTGGACATGGATGAG; sugars from the 5' end e5 d10 e5, all phosphorothioate, methylation of C not given here) [compound 101759]” was tested. Which “Percent Inhibition of human JNK2 mRNA” value (human JNK2 mRNA; 1 uM) did it give?
**A.** 14%

**Q.** What about the “Percent Inhibition of human JNK2 mRNA” value (human JNK2 mRNA; 5 uM) of the same substance?
**A.** 56%

**Q.** What about the “Percent Inhibition of human JNK2 mRNA” value (human JNK2 mRNA; 20 uM) of the same substance?
**A.** 92%

**Q.** How did the “RNA % Inhibition” value (JNK1 mRNA; t = 48 h) turn out when “15346 (antisense CTCTCTGTAGGCCCGCTTGG; gapmer: P=S, 2'-MOE wings, 2'-deoxy core, chemistry not fully specified) [compound 15346]” was run?
**A.** 95.7%

**Q.** What about the “RNA % Inhibition” value (JNK1 mRNA; t = 72 h) of the same substance?
**A.** 89.4%

**Q.** How did the “level of inhibition of JNK2” value (JNK2 mRNA; for at least about 12 hours following the 4 hour treatment) turn out when “12560 (antisense dG*dT*dC*dC*dG*dG*dG*dC*dC*dA*dG*dG*dC*dC*dA*dA*dA*dG*dT*dC) [compound 12560]” was run?
**A.** greater than or equal to 80%

**Q.** What about the “level of inhibition of JNK2” value (JNK2 mRNA; up to at least about t=48 h) of the same substance?
**A.** greater than or equal to 60%

**Q.** How did the “response of JNK1 mRNA levels in A549 cells (dose and sequence dependence)” value (JNK1 mRNA) turn out when “14321 (CTTTCCGTTGGACCCCTGGG; DNA, all phosphorothioate, methylation of C not given here) [compound 14321]” was run?
**A.** neither of the control oligonucleotides effect any consistent response

**Q.** What does the source list for “12539 (antisense CTCTCTGTAGGCCCGCTTGG; DNA, all phosphorothioate, methylation of C not given here) [compound 12539]”?
**A.** response of JNK1 mRNA levels in A549 cells (dose and sequence dependence) (JNK1 mRNA): dependent on dose in an approximately linear fashion; RNA % Inhibition (JNK1 mRNA; t = 48 h): 93.3%; RNA % Inhibition (JNK1 mRNA; t = 72 h): 88.3%; response of JNK2 mRNA levels in A549 cells (dose and sequence dependence) (JNK2 mRNA): dependent on dose in an approximately linear fashion

**Q.** For “15353 (antisense GTCCGGGCCAGGCCAAAGTC; P=S gapmer, 2'-MOE wings, chemistry not fully specified) [compound 15353]”, which “inhibition of TNFa-induced JNK activity” value [1] is on record?
**A.** approximately 55%

**Q.** Which “response of JNK1 mRNA levels in A549 cells (dose and sequence dependence)” value (JNK1 mRNA) does the source give for “14320 (sense CCAAGCGGGCCTACAGAGAG; DNA, all phosphorothioate, methylation of C not given here) [compound 14320]” here?
**A.** neither of the control oligonucleotides effect any consistent response

**Q.** How did the “specific modulation of mRNA encoding JNK2 (dose response)” value (rat JNK2 mRNA) turn out when “18259 (antisense eGe[5mC]eTe[5mC]eA*dG*dT*dG*dG*dA*d[5mC]*dA*dT*dG*dG*eAeTeGeAeG) [compound 18259]” was run?
**A.** specifically modulates levels of mRNA encoding JNK1 and JNK2, respectively

**Q.** With “14318 (sense dG*dA*dC*dT*dT*dT*dG*dG*dC*dC*dT*dG*dG*dC*dC*dC*dG*dG*dA*dC) [compound 14318]” as the substance, how does the “response of JNK2 mRNA levels in A549 cells (dose and sequence dependence)” value (JNK2 mRNA) read?
**A.** neither of the control oligonucleotides effect any consistent response

**Q.** How did the “specific modulation of mRNA encoding JNK1 (dose response)” value (rat JNK1 mRNA) turn out when “21859 (antisense e[5mC]eTe[5mC]eAeT*dG*dA*dT*dG*dG*d[5mC]*dA*dA*dG*d[5mC]*eAeAeTeTeA) [compound 21859]” was run?
**A.** specifically modulates levels of mRNA encoding JNK1 and JNK2, respectively
